According to patent US20230129364A1, “PYRROLIDINE DERIVATIVE, AND PHARMACEUTICAL COMPOSITION FOR PREVENTING OR TREATING BETA-AMYLOID OR TAU PROTEIN-ASSOCIATED DISEASES CONTAINING SAME” (YONSEI UNIVERSITY, UNIVERSITY - INDUSTRY FOUNDATION (UIF), priority 2019, published 2023):

What was measured:
[1] = molecular target: T1, aggregated tau protein (wild-type K18) (Homo sapiens, UniProt P10636); test: Tau protein aggregate degradation test (thioflavin T assay); format: biochemical; conditions: pre-aggregated tau, further 5 days at 37° C., ThT fluorescence vs control = 100%
T1 construct: Tau protein (wild-type K18)
T1 sequence (P10636 561-685 limits assumed): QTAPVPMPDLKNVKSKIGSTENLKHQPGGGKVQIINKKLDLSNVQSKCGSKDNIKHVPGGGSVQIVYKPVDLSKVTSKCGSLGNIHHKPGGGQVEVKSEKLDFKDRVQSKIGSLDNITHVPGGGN
Protocol: Tau protein (wild-type K18) was dissolved in phosphate-buffered saline (PBS, pH 7.4) at a concentration of 1 mg/mL to prepare a tau protein solution. 0.1 mg/mL of heparin and 100 μM dithiothreitol (DTT) were added to 1 mg/mL of the tau protein solution, followed by incubation at 37° C. for 5 days to induce tau protein aggregation. The aggregated tau protein was mixed with each test compound in an amount of 50 or 500 μM such that the final concentration reached 0.5 mg/mL, followed by further incubation at 37° C. for 5 days to induce reaction.
The degradation effect of each compound on the tau aggregates was measured by thioflavin T (ThT) assay (see Example 2). More specifically, 25 μL of the reaction solution was charged in each well of a 96-well plate for fluorescence analysis and 75 μL of the prepared thioflavin-T solution was charged in each well. The reaction was allowed to proceed at room temperature in a dark laboratory for 5 minutes and then fluorescence values were measured at an excitation wavelength of 450 nm and an emission wavelength of 485 nm using a multi-mode microplate reader.
The ratio of the fluorescence value measured in the group obtained by treating with each test compound to 100% of the fluorescence value of the group (control group) obtained by treating only with tau proteins and inducing aggregation for 5 days is set forth in Table 6 below: […]

[2] = molecular target: T2, Tau protein (wild-type K18) (Homo sapiens, UniProt P10636); test: Tau protein aggregation inhibition test (thioflavin T assay); format: biochemical; conditions: heparin/DTT-induced aggregation, 37° C. 5 days, ThT fluorescence vs tau-only control = 100%
T2 construct: Tau protein (wild-type K18)
T2 sequence (P10636 561-685 limits assumed): as above
Protocol: Tau protein (wild-type K18) was dissolved in phosphate-buffered saline (PBS, pH 7.4) at a concentration of 1 mg/mL to prepare a tau protein solution. In order to induce aggregation of tau proteins, 0.1 mg/mL of heparin and 100 μM dithiothreitol (DTT) were added to 1 mg/mL of the tau protein solution, followed by incubation at 37° C. for 5 days. At this time, the result was mixed with each test compound (50, 500 μM) such that the final concentration reached 0.5 mg/mL, followed by further incubation.
The inhibitory effect of each compound against tau aggregation was measured based on the intensity of fluorescence by thioflavin T (ThT) assay (see Example 2). More specifically, 25 μL of the reaction solution was charged in each well of a 96-well plate for fluorescence analysis, and 75 μL of the prepared thioflavin-T solution was then charged in each well. The reaction was allowed to proceed at room temperature in a dark laboratory for 5 minutes, and then fluorescence values were measured at an excitation wavelength of 450 nm and an emission wavelength of 485 nm using a multi-mode microplate reader.
The ratio of the fluorescence value measured in the group obtained by treating with each test compound to 100% of the fluorescence value of the group (control group) obtained by treating only with tau proteins and inducing aggregation for 5 days is set forth in Table 5 below: […]

| ThT fluorescence remaining (% of control) ([1]; 50 uM test compound) | ThT fluorescence remaining (% of control) ([1]; 500 uM test compound) | Tau aggregation remaining (ThT fluorescence, % of tau-only control) ([2]; 50 uM test compound) | Tau aggregation remaining (ThT fluorescence, % of tau-only control) ([2]; 500 uM test compound) | SMILES |
| --- | --- | --- | --- | --- |
| 54.41 % of control | 40.38 % of control | 63.13 % of control | 42.61 % of control | O=C1NC(=O)/C(=C/c2c[nH]c3cnccc23)S1 [DN204290, (Z)-5-((1H-pyrrolo[2,3-c]pyridin-3-yl)methylene)thiazolidine-2,4-dione] |
| – | – | 65.99 % of control | – | O=C1NC(=O)C(Cc2csc3ccccc23)S1 (centres unmarked) [DN204291, 5-(benzo[b]thiophen-3-ylmethyl)thiazolidine-2,4-dione] |
| 80.31 % of control | 45.47 % of control | 90.337 % of control | 39.019 % of control | O=C1NC(=S)SC1Cc1c[nH]c2ccccc12 (centres unmarked) [DN204301, 5-((1H-indol-3-yl)methyl)-2-thioxothiazolidin-4-one] |
| 61.22 % of control | 56.43 % of control | 83.45 % of control | 56.13 % of control | O=C1NC(=S)SC1Cc1ccoc1 (centres unmarked) [DN204305, 5-(furon-3-ylmethyl)-2-thioxothiazolidin-4-one] |
| – | – | 87.73 % of control | – | CN1C(=O)N/C(=C\c2cccc3ccoc23)C1=O [DN204670, (Z)-5-(benzofuran-7-ylmethylene)-3-methylimidazolidine-2,4-dione] |
| – | – | – | 57.26 % of control | O=C1NC(=O)C(Cc2cc[nH]c2)S1 (centres unmarked) [DN204307, 5-((1H-pyrrol-3-yl)methyl)thiazolidine-2,4-dione] |
| 66.03 % of control | 73.34 % of control | 66.31 % of control | 52.16 % of control | O=C1NC(=S)SC1Cc1ccsc1 (centres unmarked) [DN204306, 5-(thiophen-3-ylmethyl)-2-thioxothiazolidin-4-one] |
| – | 95.86 % of control | 55.97 % of control | 58.22 % of control | O=C1NC(=O)C(Cc2ccsc2)S1 (centres unmarked) [DN204293, 5-(thiophen-3-ylmethyl)thiazolidine-2,4-dione] |
| 89.98 % of control | – | 74.98 % of control | 59.6 % of control | O=C1NC(=O)C(Cc2c[nH]c3ccccc23)S1 (centres unmarked) [DN204295, 5-((1H-indol-3-yl)methyl)thiazolidine-2,4-dione] |
| – | – | 92.633 % of control | – | O=C1NC(=S)SC1Cc1csc2ccccc12 (centres unmarked) [DN204300, 5-(benzo[b]thiophen-3-ylmethyl)-2-thioxothiazolidin-4-one] |
| 61.17 % of control | 71.42 % of control | 69.16 % of control | 59.86 % of control | O=C1NC(=O)/C(=C/c2ccoc2)S1 [DN204287, (Z)-5-(furan-3-ylmethylene)thiazolidine-2,4-dione] |
| – | – | 87.61 % of control | 65.66 % of control | CCN1C(=O)/C(=C/c2csc3ccccc23)NC1=S [DN204810, (Z)-5-(benzo[b]thiophen-3-ylmethylene)-3-ethyl-2-thioxoimidazolidin-4-one] |
| – | – | 88.61 % of control | 77.02 % of control | CN1C(=O)N/C(=C\c2csc3ccccc23)C1=O [DN204671, (Z)-5-(benzo[b]thiophen-3-ylmethylene)-3-methylimidazolidine-2,4-dione] |
| – | – | 83.97 % of control | – | CCN1C(=O)N/C(=C\c2c[nH]c3ccncc23)C1=O [DN205822, (Z)-5-((1H-pyrrolo[3,2-c]pyridin-3-yl)methylene)-3-ethylimidazolidine-2,4-dione] |
| – | – | 97.55 % of control | 75.35 % of control | CCN1C(=O)/C(=C/c2csc3ccccc23)SC1=S [DN205782, (Z)-5-(benzo[b]thiophen-3-ylmethylene)-3-ethyl-2-thioxothiazolidin-4-one] |
| – | – | 67.16 % of control | 47.38 % of control | O=C1NC(=S)SC1Cc1cnc2ccccc2c1 (centres unmarked) [DN204302, 5-(quinolin-3-ylmethyl)-2-thioxothiazolidin-4-one] |
| – | – | 83.56 % of control | 62.51 % of control | CCN1C(=O)/C(=C/c2c[nH]c3cnccc23)SC1=S [DN205779, (Z)-5-((1H-pyrrolo[2,3-c]pyridin-3-yl)methylene)-3-ethyl-2-thioxothiazolidin-4-one] |
| – | – | 74.09 % of control | 80.79 % of control | O=C1NC(=O)/C(=C/c2ccsc2)S1 [DN204288, (Z)-5-(thiophen-3-ylmethylene) thiazolidine-2,4-dione] |
| 82.23 % of control | 77.46 % of control | 63.18 % of control | 60.16 % of control | O=C1NC(=O)C(Cc2ccoc2)S1 (centres unmarked) [DN204292, 5-(furan-3-ylmethyl)thiazolidine-2,4-dione] |
| – | – | 81.81 % of control | 69.79 % of control | CCN1C(=O)/C(=C/c2cccc3ccccc23)SC1=S [DN205783] |
| 39.88 % of control | 36.97 % of control | – | 70.7 % of control | CCN1C(=O)/C(=C/c2cccs2)NC1=S [DN204815, (Z)-3-ethyl-5-(thiophen-2-ylmethylene)-2-thioxoimidazolidin-4-one] |
| 64.04 % of control | 78.38 % of control | 53.14 % of control | 42.56 % of control | O=C1NC(=O)/C(=C/c2c[nH]c3ccccc23)S1 [DN204285, (Z)-5-((1H-indol-3-yl)methylene)thiazolidine-2,4-dione] |
